The record followed here is EP0777471B1, “INHIBITION OF LEUKOTRIENE BIOSYNTHESIS WITH UREA DERIVATIVES” (MINNESOTA MINING AND MANUFACTURING COMPANY, priority 1994, dated 1996).

One assay has as its target T1, 5-lipoxygenase (Homo sapiens, UniProt P09917).
T1 construct: Whole human blood is collected by venipuncture into EDTA; endogenous in cells; host or cells: leukocytes isolated from whole human blood (dextran sedimentation, hypotonic lysis)
T1 sequence (P09917 1-674): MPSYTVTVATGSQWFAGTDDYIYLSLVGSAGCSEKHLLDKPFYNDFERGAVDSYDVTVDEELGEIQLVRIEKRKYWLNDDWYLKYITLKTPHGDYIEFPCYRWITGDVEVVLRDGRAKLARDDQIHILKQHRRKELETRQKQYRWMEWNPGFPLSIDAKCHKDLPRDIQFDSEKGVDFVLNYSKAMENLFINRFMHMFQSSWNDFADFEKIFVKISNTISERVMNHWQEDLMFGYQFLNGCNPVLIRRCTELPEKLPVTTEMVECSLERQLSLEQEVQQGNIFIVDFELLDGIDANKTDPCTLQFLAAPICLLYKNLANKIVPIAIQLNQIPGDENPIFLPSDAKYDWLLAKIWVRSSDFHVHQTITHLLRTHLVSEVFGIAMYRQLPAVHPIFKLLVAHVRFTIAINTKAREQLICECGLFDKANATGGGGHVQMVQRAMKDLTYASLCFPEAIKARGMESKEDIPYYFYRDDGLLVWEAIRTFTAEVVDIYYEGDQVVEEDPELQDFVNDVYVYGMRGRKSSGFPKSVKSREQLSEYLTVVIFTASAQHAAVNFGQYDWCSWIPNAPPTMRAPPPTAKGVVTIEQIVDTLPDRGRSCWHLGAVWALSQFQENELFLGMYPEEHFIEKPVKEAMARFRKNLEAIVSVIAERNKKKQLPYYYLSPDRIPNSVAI
As to the kind of experiment: 5-Lipoxygenase inhibition in human leukocytes (A23187-stimulated, LTC4 radioimmunoassay). In kind it is cell-based. The conditions noted are these: human leukocytes, A23187 Calcium Ionophore, LTC4 formed; read-out: IC50. Here is the method: The test method described below measures the ability of compounds to inhibit 5-lipoxygenase activity in human leukocytes.
Whole human blood is collected by venipuncture into EDTA (1.4 mL of 0.25M per 60 mL of whole blood). The red blood cells are sedimented with a 6% dextran/0.9% sodium chloride solution at a ratio of 25 mL whole blood to 15 mL dextran solution. The blood/dextran combination is mixed by inversion and the red blood cells are allowed to settle out for 45 minutes at ambient temperature. The plasma/dextran supernatant is removed then centrifuged at ambient temperature at 3000 rpm for 10 minutes. The plasma/dextran supernatant is removed and the cells are resuspended in 10 mL of the plasma/dextran solution. […] The pellet is then resuspended into Tris buffer containing 1 mM calcium chloride to provide approximately 1.0 X 10^7 cells/mL.
Compounds are dissolved in dimethyl sulfoxide. […] Each concentration is tested in duplicate.
A 15 µL portion of Tris buffer containing 1 mM calcium chloride is added to each well of a 96 well microtiter plate. A 1 µL portion of drug solution or vehicle (dimethyl sulfoxide) is added to each well followed by the addition of an 75 µL portion of the cell suspension. The plates are gently mixed then allowed to stand at ambient temperature for 10 minutes. A 10 µL portion of 30 µM A23187 Calcium Ionophore (prepared by dissolving the ionophore in DMSO and then diluting 1:80 into the Tris buffer) is added to each well except the wells that contain the blanks (The blank wells measure the level of LTC4 production in the absence of A23187.). The plates are gently mixed then incubated at 37°C for 10 minutes.
Following incubation the plates are centrifuged at 2000 rpm for 1.5 minutes and the supernatant is removed as quickly as possible to stop the reaction. The supernatants are frozen at -20°C until they are assayed.
The supernatants are assayed for the presence of Leukotriene C4 by radioimmunoassay which is performed according to the manufacturer's (Advanced Magnetics; Cambridge, MA) instructions.

Assay [1] deals with production of Leukotriene B4. In words: Rat ex vivo Leukotriene B4 inhibition (oral dosing, blood challenged with A23187). The class given is in vivo, Rats. The conditions noted are these: two hours post dose. Here is the method: The test method described below measures the ability of a compound when administered orally to rats to inhibit the production of Leukotriene B4 in their blood which is drawn and challenged.
Rats (CD, male, non-fasted, 250 g) are lightly anesthetized with carbon dioxide and an approximately 0.75 mL sample of whole blood is obtained via cardiac puncture. The sample is dispensed into 12 X 75 mm polypropylene tubes containing 8-10 µL of 10,000 units/mL heparin, mixed and then maintained on ice. The rats are allowed to recover approximately one hour then dosed orally with compound dissolved in PEG 400 at a 5 mL/Kg volume. Five (5) rats are utilized per group. Two (2) hours post dose the rats are again anesthetized with carbon dioxide and the blood sampled again via cardiac puncture.
Duplicate 200 µL portions of blood are added to 1.0 mL polypropylene tubes. A 10 µL portion of 1mM A23187 Calcium Ionophore in dimethyl sulfoxide/Tris buffer is added to each tube. The tubes are gently vortexed then incubated in a 37°C water bath for 30 minutes. The tubes are then centrifuged at 4000 rpm for 10 minutes. 50 µL portions of plasma are transferred to 1.0 mL tubes containing 200 µL of methanol. The tubes are vortexed then placed in the freezer overnight.
The tubes are removed from the freezer then centrifuged at 4000 rpm for 10 minutes. […] portions of the methanol/plasma supernatant and 10 µL methanol dilutions of LTB4 standard curve are transferred to 96 well v-bottom microtiter plates. The plates are vacuum dried at 40°C. A 40 µL portion of LTB4 radioimmunoassay buffer is added to each well. The plate is bath sonicated for 5 minutes then assayed according to the manufacturer's (Advanced Magnetics; Cambridge, MA) instructions. Percent inhibition values are obtained by comparing the level of LTB4 in the post-dose samples to the level in the pre-dose samples according to the equation below. % Inhibition =((LTB4 pre-dose) - (LTB4 post-dose))/((LTB4 pre-dose))X 100 [formula]

In assay [2] the test system is production of Leukotriene C4 in mouse peritoneal macrophages. As to the kind of experiment: In vitro mouse peritoneal macrophage Leukotriene C4 inhibition (zymosan-stimulated, LTC4 radioimmunoassay). The following applies: Zymosan 50 µg/mL. The class given is cell-based. Here is the method: The test method described below measures the ability of compounds to inhibit the production of Leukotriene C4 in mouse peritoneal macrophages.
Mice (female, CD-1, weighing 25 g) are euthanized by exposure to carbon dioxide. The peritoneal cavity is exposed by peeling back the abdominal skin. A 5 mL portion of media (M199 containing 1% fetal bovine serum, 100 units/mL of penicillin, 100 µg/mL of streptomycin, 20 units/mL of heparin and no glutamine) is injected into the exposed peritoneal cavity of each mouse. The lavage fluid is removed and pooled to yield approximately1 X 10^6 macrophages/mL. A 2 mL portion of lavage fluid is added to each well of a 24 well sterile multidish and the macrophages are allowed to adhere to the plate for 2 hours at 37°C in a 5% carbon dioxide atmosphere. The media is removed and each well is washed with 2 mL of phosphate buffered saline (PBS). A 1 mL portion of media, without heparin, but containing 5 µCi/mL of 3H-myoinositol is added to each well and the plates are incubated overnight at 37°C in a 5% carbon dioxide atmosphere. The media is removed and the cells are washed twice with 2 mL portions of PBS. A 1 mL portion of Puck's saline formulation A containing 1 mM calcium chloride, 1 mM magnesium chloride and 10 mM lithium chloride is added to each well. (The Puck's formulation is made first as a 10X solution which contains 4 g of potassium chloride, 80 g of sodium chloride and 10 g of glucose per liter. The Puck's saline formulation A is made using 10 mL of the 10X Puck's formulation, 0.47 mL of 7.5% sodium bicarbonate and 2 mL of 1M N-2-hydroxyethylpiperazine-N'-2-ethanesulfonic acid per 100 mL.)
Compounds are dissolved in dimethyl sulfoxide. Compounds are tested at concentrations of 10, 1 and 0.1 µM. Each concentration is tested in duplicate.
A 1 µL portion of compound solution or vehicle (DMSO) is added to each well and the plates are incubated for 15 minutes at 37°C in a 5% carbon dioxide atmosphere. Zymosan is then added to provide a final concentration of 50 µg/mL in each well and the plate is incubated for 1 to 2 hours at 37°C in a 5% carbon dioxide atmosphere.
Following incubation 200 µL portions of media are transferred to 12 X 75 mm tubes. The tubes are either assayed immediately or stored at -20°C until they can be assayed.
The media is assayed for the presence of Leukotriene C4 by radioimmunoassay which is performed according to the manufacturer's (Advanced Magnetics; Cambridge, MA) instructions.

In general, IC50 refers to the concentration that gives 50% inhibition.

Several values for one entry are separate records, joined by “and”; a condition that tells them apart may be missing. Equal entries are not always repeated. Where only a bound is given, the exact number is not on record here.

Consider `CN(O)C(=O)Nc1cccc(OS(=O)(=O)C(F)(F)F)c1` [Compound 2, 1-hydroxy-1-methyl-3-[3-(trifluoromethylsulfonoxy)phenyl]urea], for which the half-maximal inhibitory concentration (IC50) on 5-lipoxygenase amounted to 40 nM.

As for `CN(O)C(=O)Nc1cccc(SC(F)(F)F)c1` [Compound 4, 1-hydroxy-1-methyl-3-[3-(trifluoromethylthio)phenyl]urea], the half-maximal inhibitory concentration (IC50) on 5-lipoxygenase was 27 nM.

Consider `COc1cccc(NC(=O)NO)c1` [Compound 33, 1-hydroxy-3-(3-methoxyphenyl)urea], for which the 50% inhibitory concentration (IC50) on 5-lipoxygenase stood at 9100 nM. Further, in assay [1] (25 mg/Kg), the “%I” value stood at 26%.

Take `CCCN(O)C(=O)Nc1ccccc1` [Compound 55, 1-hydroxy-3-phenyl-1-propylurea]: the IC50 at 5-lipoxygenase stood at 52 nM. Further, in assay [1] (50 mg/Kg), the “%I” value stood at 8%.

Consider `CCCCCN(O)C(=O)Nc1ccccc1` [Compound 56, 1-hydroxy-1-pentyl-3-phenylurea], for which, in assay [1] (50 mg/Kg), the “%I” value is 6% and 13%. Further, in assay [2], the concentration for half-maximal inhibition (IC50) was less than 100 nM.

As to `CC(C)N(O)C(=O)Nc1ccc(S(C)(=O)=O)cc1` [Compound 62, 1-Hydroxy-1-(1-methylethyl)-3-[4-(methylsulfonyl)phenyl]urea], the “%I” value in assay [1] (50 mg/Kg) was found to be 18%. The compound further had a 50% inhibitory concentration (IC50) in assay [2] of 6400 nM.

Turning to `CC(C)N(O)C(=O)Nc1ccc([S+](C)[O-])cc1` (stereo not drawn) [Compound 63, 1-Hydroxy-1-(1-methylethyl)-3-[4-(methylsulfinyl)phenyl]urea], the “%I” value in assay [1] (50 mg/Kg) came out at 92%. In addition, inhibition in assay [2] was half-maximal at 4000 nM (IC50).

Turning to `Cc1cc(C)c(NC(=O)N(O)C(C)C)cc1C` [Compound 67, 1-Hydroxy-1-(1-methylethyl)-3-(2,4,5-trimethylphenyl)urea], the “%I” value in assay [1] (50 mg/Kg) amounted to 23%. This compound also had an IC50 in assay [2] of less than 1000 nM.

In the case of `CCC(C)N(O)C(=O)Nc1ccccc1` (stereo not drawn) [Compound 69, 1-Hydroxy-1-(1-methylpropyl)-3-phenylurea], the “%I” value in assay [1] (50 mg/Kg) stood at 71%. This compound also came in with an IC50 in assay [2] of less than 1000 nM.

For `CCCC(CCC)N(O)C(=O)Nc1ccccc1` [Compound 70, 1-Hydroxy-1-(1-propylbutyl)-3-phenylurea], the “%I” value in assay [1] (50 mg/Kg) stood at 0%. In assay [2], this compound came in with an IC50 of less than 1000 nM.

On to `CCCC(CC)N(O)C(=O)Nc1ccccc1` (stereo not drawn) [Compound 71, 1-Hydroxy-1-(1-ethylbutyl)-3-phenylurea], for which, in assay [1] (50 mg/Kg), the “%I” value is listed as 5%. In assay [2], this compound came in with an IC50 of less than 1000 nM.

Regarding `CCC(CC)N(O)C(=O)N(C)c1ccccc1` [Compound 74, 1-Hydroxy-1-(1-ethylpropyl)-3-methyl-3-phenylurea], the “%I” value in assay [1] (50 mg/Kg) came out at 7%. Also, the 50% inhibitory concentration (IC50) in assay [2] was less than 10000 nM.

Turning to `CN(O)C(=O)N(C)c1ccccc1` [Compound 75, 1-Hydroxy-1,3-dimethyl-3-phenylurea], the “%I” value in assay [1] (50 mg/Kg) was 0%. Also, in assay [2], the IC50 is less than 10000 nM.

For `CCC(CC)N(O)C(=O)Nc1ccccc1Oc1ccccc1` [Compound 76, 1-Hydroxy-1-(1-ethylpropyl)-3-(2-phenoxyphenyl)urea], in assay [1] (50 mg/Kg), the “%I” value stood at 13%. This compound gave a 50% inhibitory concentration (IC50) in assay [2] of less than 100 nM.

For the compound `CCC(CC)N(O)C(=O)Nc1cccc(Oc2ccccc2)c1` [Compound 77, 1-Hydroxy-1-(1-ethylpropyl)-3-(3-phenoxyphenyl)urea], the “%I” value in assay [1] (50 mg/Kg) worked out at 7%. The same compound registered a concentration for half-maximal inhibition (IC50) in assay [2] of less than 100 nM.

For `CCC(CC)N(O)C(=O)Nc1ccc(Cc2ccccc2)cc1` [Compound 78, 1-Hydroxy-1-(1-ethylpropyl)-3-(4-benzylphenyl)urea], the “%I” value in assay [1] (50 mg/Kg) is given as 0%. This compound also came in with an IC50 in assay [2] of less than 1000 nM.
